The values below come from paper PMC12985355 (Journal of the American Chemical Society, 2025).

Like-named read-outs stand apart in the source and are kept apart here.

In one experiment the target is CntL (Staphylococcus aureus, UniProt A0A0H3JXA8). The experiment can be described thus: thermal shift assay. Type of experiment: binding.
The target of experiment [1] is T1, NAT (SAM:nocardicin 3-ACP transferase) (Nocardia uniformis, UniProt Q9RAH6).
T1 sequence (Q9RAH6 1-301): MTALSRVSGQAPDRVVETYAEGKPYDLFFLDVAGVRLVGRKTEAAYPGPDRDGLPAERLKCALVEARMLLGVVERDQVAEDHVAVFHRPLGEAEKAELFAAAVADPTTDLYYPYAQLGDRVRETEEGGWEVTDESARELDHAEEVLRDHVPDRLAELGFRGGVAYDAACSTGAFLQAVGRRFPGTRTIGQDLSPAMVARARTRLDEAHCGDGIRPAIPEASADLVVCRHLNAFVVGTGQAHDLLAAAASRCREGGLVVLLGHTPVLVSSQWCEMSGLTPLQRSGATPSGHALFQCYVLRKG
As to the kind of experiment: thermal shift assay. Type of experiment: binding. The note with it: further addition to enzyme with nocardicin E (2).

Experiment [2] addresses T1, NAT (SAM:nocardicin 3-ACP transferase). As to the kind of experiment: 3-ACP transfer, LC-MS. Type of experiment: biochemical. The note with it: SAM as co-substrate; very low yield.
For experiment [3] the target is unchanged. The experiment can be described thus: thermal shift assay. Type of experiment: binding. The settings on record: binds to a similar extent as SAM; no turnover with nocardicin E.

CntL, sequence (A0A0H3JXA8 whole entry): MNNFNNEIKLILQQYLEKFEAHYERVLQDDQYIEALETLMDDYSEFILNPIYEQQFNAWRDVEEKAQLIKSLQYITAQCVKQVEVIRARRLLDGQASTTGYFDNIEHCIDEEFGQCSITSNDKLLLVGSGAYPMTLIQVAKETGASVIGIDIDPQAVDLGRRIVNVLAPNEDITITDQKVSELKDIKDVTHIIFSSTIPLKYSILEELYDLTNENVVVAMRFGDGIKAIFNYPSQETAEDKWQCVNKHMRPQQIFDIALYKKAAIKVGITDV

`N[C@H](Cc1c[nH]cn1)C(=O)O` [D-histidine]: at CntL (with SAM present, no shift with da-SAM), the melting point result was “the melting point increased when CntL was combined with SAM and D-his”.
`C[S+](CC[C@H](N)C(=O)O)C[C@H]1O[C@@H](n2cnc3c(N)ncnc32)[C@H](O)[C@@H]1O` (stereo partly drawn) [SAM]: on CntL, the melting point result is “da-SAM can bind to the enzyme to the same extent as SAM”. Moreover, the “increase in melting temperature” value in experiment [1] came out at 7 °C.
In the case of `CC1(C)S[C@@H]2[C@H](NC(=O)[C@H](N)c3ccc(O)cc3)C(=O)N2[C@H]1C(=O)O` [amoxicillin], in experiment [2], the “3-ACP transfer, LC-MS” value was “NAT accepted both of them, to produce the 3-ACP-β-lactam products”.
As for `CC1=C(C(=O)O)N2C(=O)[C@@H](NC(=O)[C@H](N)c3ccc(O)cc3)[C@H]2SC1` [cefadroxil], in experiment [2], the “3-ACP transfer, LC-MS” value is “NAT accepted both of them, to produce the 3-ACP-β-lactam products”.
For the molecule `C[S+](CCCC(=O)[O-])C[C@H]1O[C@@H](n2cnc3c(N)ncnc32)[C@H](O)[C@@H]1O` (stereo partly drawn) [deamino-SAM], the melting temperature result in experiment [3] is recorded as “deamino-SAM can bind to the enzyme to a similar extent as SAM”.
